Data taken from US3970648A, “2-[2-(5-Nitro-2-furyl)vinyl]-4-(anilino)quinazolines” (Diamond Shamrock Corporation, priority 1974, dated 1976).

Legend:
[1] = Growth promotion in chicks, Example XI (Table V); assay type: in vivo, broiler cross chicks; conditions: for feed efficiency (in words) / growth rate (in words): 25 g/T; for Average 4 Week Performance: Feed Efficiency / Average 4 Week Performance: Gain / Improved Response Over Basal Ration: Feed Efficiency / Improved Response Over Basal Ration: Gain: 4 weeks
Source text: (§1) This example compares growth promotion activity of the product of Example I with other growth promotants at a concentration of 25 g/T in the Basal Ration described in Example VII. The other growth promotants include the product described in Example I of U.S. Pat. No. 3,542,784 -- Burch and quinoxaline-1,4-dioxide. Day old broiler cross chicks were weight equalized into groups of eight chicks each, and four replicates of eight chicks each were fed the experimental rations over a 4 week period.
The growth promotion tests described in Example X were repeated with the exception that five replicates of eight chicks each were fed the formulations described in Table V for 4 weeks.

[2] = Growth promotion and feed efficiency in chicks, Example VII (Table I); assay type: in vivo, broiler cross chicks; conditions: for Average 4 Week Performance: Feed Efficiency / Average 4 Week Performance: Gain / Improved Response Over Basal Ration + Bacitracin: Feed Efficiency / Improved Response Over Basal Ration + Bacitracin: Gain: 200 g/T in basal ration + bacitracin (4 g/T), 4 weeks; for significance of improved feed efficiencies (level of probability) / significance of improved weight gains (level of probability): 200 g/T, analysis of variance
Source text: One hundred 20 day-old broiler cross chicks were weight equalized into 15 groups of eight chicks each and placed in battery brooders. The 40 chick treatment groups (five replicates) were fed the one of the three rations described below for a 4 week period. Weekly measurements of body weights and feed consumption were made by replicate, and these measurements used to calculate weight gain and feed efficiency.
The commercial type broiler starter basal ration which was used in this study was designated as the Basal Ration, and had the following composition:
The preceding basal ration was mixed with bacitracin at a level of 4 g/T as the only growth stimulant to simulate commercial practice. This mixture was designated as the Basal Ration + Bacitracin (4 g/T) and constituted the negative control in this study.
A second ration was prepared by fortifying the Basal Ration + bacitracin described above with the Product from Example I above at a level of 200 g/T, and was designated as Basal Ration + Bacitracin + Product of Example I (200 g/T). A third ration was prepared by fortifying the Basal Ration + bacitracin described above with chlortetracycline (CTC) at a level of 200 g/T, and was designated as Basal Ration + Bacitracin + Chlortetracycline (200 g/T). Chlortetracycline served as the positive control in this test because it had shown strong growth promotion in numerous previous tests at this therapeutic level.
The commercial value of the product of Example I is indicated by the fact that these significant responses were obtained in addition to the growth stimulation provided by the presence of bacitracin in the ration. It is important to note that the negative controls in this example and in Examples VIII and X which follow were characterized by rapid rates of growth. This high plane of growth and feed efficiency performance on the part of the negative controls makes the responses to the test compounds all the more meaningful.
The term "growth promotion" is used herein to describe the beneficial effect of a compound in eliciting a more rapid rate of weight gain when compared to the weight gain of control animals not fed the compound. "Feed efficiency" is a term regularly used in animal husbandry and is a measure of the pounds of feed required to produce a pound of gain in the weight of the animal. A lower mathmatical value for feed efficiency reflects improved performance. […] In this case, as in the case of the weight gain (fifth column), an improved performance is indicated by a higher positive number.

[3] = Growth promotion in chicks at low feed levels, Example VIII (Table II); assay type: in vivo, broiler cross chicks; conditions: for Average 4 Week Performance: Feed Efficiency / Average 4 Week Performance: Gain / Improved Response Over Basal Ration: Feed Efficiency / Improved Response Over Basal Ration: Gain: 10 g/T in basal ration, 4 weeks
Source text: Day old broiler cross chicks were weight equalized into groups of eight chicks each and were placed in battery brooders. The 32 chick treatment groups (four replicates) were fed one of the five rations described below for a 4 week period. Weekly measurements of body weights and feed consumption were made by replicate, and these measurements used to calculate weight gain and feed efficiency.
The basal ration was the basal ration used in Example VII above. The remaining five rations were obtained by mixing the indicated quantities of bacitracin (4 g/T), chlortetracycline (10 g/T), product of Example I (10 g/T), and product of Example III of U.S. Pat. No. 3,542,784 -- Burch (10 g/T) as growth promotants with the basal ration.

[4] = Growth promotion in chicks, Example XII first set (Table VI); assay type: in vivo, broiler cross chicks; conditions: for Average 4 Week Performance: Feed Efficiency / Average 4 Week Performance: Gain / Improved Response Over Basal Ration: Feed Efficiency / Improved Response Over Basal Ration: Gain: 25 g/T in basal ration, 4 weeks; for growth rate / feed efficiency, production parameters (in words): 25 g/T, first set of tests
Source text: as §1, with “period. […]” for “period.”

[5] = Growth rate and feed efficiency in swine, Example XIII (Table VIII); assay type: in vivo, weanling pigs; conditions: 25 g/T
Source text: Thirty-six weanling pigs weighing approximately 30 pounds each in good physical condition and originating from a common source were used in these tests. The pigs were allocated into sex and weight equalized pens of six pigs each. A 1 week period was allowed for acclimatization before testing. Three replicates of six pigs were fed the basal ration described below, and three replicates were fed the same basal ration supplemented with 25 g/T of the product of Example I.
The basal ration was a 17% commercial corn-soya pelletized formulation which was free of antibiotic and drug components. Composition of the basal ration formulation was: […]
The rations were offered ad libitum from six bushel self-feeders with a continuous supply of fresh water. The same ration formulations were used throughout the 6 week feeding period. Individual pig weighing were made after 0, 2, 4 and 6 (termination) week periods. Feed consumption records were kept on a pen basis, with feed efficiency conversion being compiled at the end of the second, fourth and sixth (termination) week of feeding. Complete morbidity and mortality records were kept.

[6] = Growth promotion in chicks at 25 g/T, Example X (Table IV); assay type: in vivo, broiler cross chicks; conditions: 25 g/T
Source text: as §1

[7] = Growth promotion in chicks, Example XII repeat (Table VII); assay type: in vivo, broiler cross chicks; conditions: for Average 4 Week Performance: Feed Efficiency / Average 4 Week Performance: Gain / Improved Response Over Basal Ration: Feed Efficiency / Improved Response Over Basal Ration: Gain: 25 g/T in basal ration, 4 weeks
Source text: as §1
The growth promotion tests described in Example X were repeated with the additional testing the products of Examples II and III.

[8] = 25 g/T combined with bacitracin 25 g/T
[9] = 6 weeks, mean of three replicates

CN(C)[C@@H]1C(O)=C(C(N)=O)C(=O)[C@@]2(O)C(O)=C3C(=O)c4c(O)ccc(Cl)c4[C@@](C)(O)[C@H]3C[C@@H]12 [Chlortetracycline, reference compound]
feed efficiency (in words) [1]: moderate improvements in feed efficiencies
growth rate (in words) [1]: slight improvements in growth rates
Average 4 Week Performance: Feed Efficiency ([1]; 25 g/T in basal ration): 1.717
Average 4 Week Performance: Gain ([1]; 25 g/T in basal ration): 752.5 g
Improved Response Over Basal Ration: Feed Efficiency ([1]; 25 g/T in basal ration): +4.7%
Improved Response Over Basal Ration: Gain ([1]; 25 g/T in basal ration): +2.7%
Average 4 Week Performance: Feed Efficiency [2]: 1.607
Average 4 Week Performance: Gain [2]: 732.4 gms
Improved Response Over Basal Ration + Bacitracin: Feed Efficiency [2]: +6.6%
Improved Response Over Basal Ration + Bacitracin: Gain [2]: +5.5%
significance of improved feed efficiencies (level of probability) [2]: 99.9%
significance of improved weight gains (level of probability) [2]: 99.5%
Average 4 Week Performance: Feed Efficiency [3]: 1.745
Average 4 Week Performance: Gain [3]: 714.2 g
Improved Response Over Basal Ration: Feed Efficiency [3]: +0.9%
Improved Response Over Basal Ration: Gain [3]: -0.9%

O=[N+]([O-])c1ccc(C=Cc2nc(Nc3ccc(O)cc3)c3ccccc3n2)o1 [Example I, 2-[2-(5-nitro-2-furyl)vinyl]-4-(p-hydroxyanilino)quinazoline]
feed efficiency (in words) [1]: substantial improvement in feed efficiency
growth rate (in words) [1]: moderate improvement in growth rate
combination effect (in words) [1, 8]: synergistic effects
Average 4 Week Performance: Feed Efficiency [1, 8]: 1.666
Average 4 Week Performance: Gain [1, 8]: 766.4 g
Improved Response Over Basal Ration: Feed Efficiency [1, 8]: +7.5%
Improved Response Over Basal Ration: Gain [1, 8]: +4.6%
Average 4 Week Performance: Feed Efficiency ([1]; 25 g/T in basal ration): 1.677
Average 4 Week Performance: Gain ([1]; 25 g/T in basal ration): 756.1 g
Improved Response Over Basal Ration: Feed Efficiency ([1]; 25 g/T in basal ration): +6.9%
Improved Response Over Basal Ration: Gain ([1]; 25 g/T in basal ration): +3.2%
Average 4 Week Performance: Feed Efficiency [4]: 1.623
Average 4 Week Performance: Gain [4]: 762.1 g
Improved Response Over Basal Ration: Feed Efficiency [4]: +0.7%
Improved Response Over Basal Ration: Gain [4]: +2.4%
growth rate / feed efficiency, production parameters (in words) [4]: moderate improvements in production parameters
Average 4 Week Performance: Feed Efficiency [2]: 1.597
Average 4 Week Performance: Gain [2]: 739.8 gms
Improved Response Over Basal Ration + Bacitracin: Feed Efficiency [2]: +7.2%
Improved Response Over Basal Ration + Bacitracin: Gain [2]: +6.5%
significance of improved feed efficiencies (level of probability) [2]: 99.9%
significance of improved weight gains (level of probability) [2]: 99.5%
Improved Response Over Basal Ration: Feed Efficiency ([5]; 6 weeks): +2.4%
Improved Response Over Basal Ration: Gain ([5]; 6 weeks): +9.9%
feed efficiency (in words) ([5]; 6 weeks): enhanced feed efficiency
growth improvement (in words) ([5]; 6 weeks): very substantial growth improvement
Avg. Daily Gain [5, 9]: 1.537
Feed/lb. Gain [5, 9]: 2.507
Avg. Daily Gain ([5]; 6 weeks, replicate a): 1.567
Feed/lb. Gain ([5]; 6 weeks, replicate a): 2.722
Avg. Daily Gain ([5]; 6 weeks, replicate b): 1.567
Feed/lb. Gain ([5]; 6 weeks, replicate b): 2.392
Avg. Daily Gain ([5]; 6 weeks, replicate c): 1.476
Feed/lb. Gain ([5]; 6 weeks, replicate c): 2.406
Avg. 6 Wk. Wt. Per Pig ([5]; replicate a): 97.8
Avg. 6 Wk. Wt. Per Pig ([5]; replicate b): 97.6
Avg. 6 Wk. Wt. Per Pig ([5]; replicate c): 93.7
Average 4 Week Performance: Feed Efficiency [3]: 1.671
Average 4 Week Performance: Gain [3]: 750.7 g
Improved Response Over Basal Ration: Feed Efficiency [3]: +5.1%
Improved Response Over Basal Ration: Gain [3]: +4.2%
growth promotion (in words) ([3]; 10 g/T, compared with other growth promotants of the test): greater growth promotion than any of the other growth promotants used in this test
effect on feed efficiency (in words) [6]: strongest response in growth rate and feed efficiency
growth response (in words) [6]: strongest response in growth rate and feed efficiency
Average 4 Week Performance: Feed Efficiency [7]: 1.706
Average 4 Week Performance: Gain [7]: 695.3 g
Improved Response Over Basal Ration: Feed Efficiency [7]: +4.4%
Improved Response Over Basal Ration: Gain [7]: +1.9%
growth rate / feed efficiency, production parameters (in words) ([7]; 25 g/T, second set of tests): moderate improvements in production parameters

O=[N+]([O-])c1ccc(C=Cc2nc(Nc3cccc(O)c3)c3ccccc3n2)o1 [Example II, 2-[2-(5-nitro-2-furyl)vinyl]-4-(m-hydroxyanilino)quinazoline]
Average 4 Week Performance: Feed Efficiency [4]: 1.580
Average 4 Week Performance: Gain [4]: 773.0 g
Improved Response Over Basal Ration: Feed Efficiency [4]: +3.3%
Improved Response Over Basal Ration: Gain [4]: +3.9%
growth rate / feed efficiency, production parameters (in words) [4]: moderate improvements
Average 4 Week Performance: Feed Efficiency [7]: 1.672
Average 4 Week Performance: Gain [7]: 696.4 g
Improved Response Over Basal Ration: Feed Efficiency [7]: +6.3%
Improved Response Over Basal Ration: Gain [7]: +2.0%
